The values below come from ChEMBL document CHEMBL1158502, “Gomphostenins: two new antimalarial compounds from the leaves of Gomphostemma niveum” (Bioorg Med Chem Lett, 2010).

Each structure is given as a SMILES string. Converted amounts (≈) assume the structure as drawn.

The test system of assay [1] is Plasmodium falciparum. As to the kind of experiment: Antiplasmodial activity against chloroquine-sensitive Plasmodium falciparum MRC-02 in human B+ erythrocytes assessed as inhibition of schizont maturation after 24 hrs by conventional parasite culture method. It counts as functional, organism-based. To be noted: MRC-02, 24 h.
Assay [2] relates to Plasmodium falciparum. As to the kind of experiment: Antiplasmodial activity against chloroquine-resistant Plasmodium falciparum in human B+ erythrocytes assessed as inhibition of schizont maturation after 24 hrs by conventional parasite culture method. It counts as functional, organism-based.
For assay [3], the system named is Plasmodium falciparum. As to the kind of experiment: Antiplasmodial activity against chloroquine-sensitive Plasmodium falciparum MRC-02 in human B+ erythrocytes assessed as inhibition of schizont maturation at 0.25 ug/mL after 24 hrs by conventional parasite culture method. It counts as functional. To be noted: MRC-02, 24 h.

Turning to `CC(=O)OC[C@@H]1CC[C@]2(C)C(C)=CC(=O)C[C@H]2[C@]1(C)CCC1=CCOC1=O`, the results for the IC50 with Plasmodium falciparum [1] and in the assay on Plasmodium falciparum [2] were 3.4 µg/mL (≈ 9.08 µM) and 3.2 µg/mL (≈ 8.55 µM), respectively.

As to `CCN(CC)CCCC(C)Nc1ccnc2cc(Cl)ccc12` (stereo not given) [CHLOROQUINE], the inhibition at 0.25 µg/mL in the assay with Plasmodium falciparum [3] was found to be 100%.

With `CC1=CC(=O)C[C@H]2[C@](C)(CCC3=CCOC3=O)[C@H](CO)CC[C@]12C` [GOMPHOSTENIN], the IC50 amounted to 38.2 µg/mL (≈ 115 µM) with Plasmodium falciparum [1] and 37.7 µg/mL (≈ 113 µM) with Plasmodium falciparum [2].
